The text below walks through data of patent US20130029983A1, “AMINOTHIENOPYRIDAZINE INHIBITORS OF TAU ASSEMBLY” (priority 2009, published 2013).

Data set [1] has as its target T1, K18PL tau (Homo sapiens, UniProt P10636, P618L).
T1 construct: (K18PL; amino acids 244-369); made in house
Nature of the data set: Heparin-induced K18PL tau fibrillization assay monitored by ThT fluorescence. The class given is biochemical. Particulars: for inhibition at 80 µM: highest tested concentration (80 μM), read-out: Tau ThT Assay % Inhib.; for IC50: logarithm of IC50, K18PL tau ThT fluorescence inhibition, read-out: Tau ThT Assay Log IC50 (converted). As for the experimental part:
Tau fibril formation reactions were performed essentially as described (Crowe, A., Ballatore, C., Hyde, E., Trojanowski, J. Q., and Lee, V. M. Y. (2007) Biochemical and Biophysical Research Communications 358, 1-6). K18PL (2 μl of a 30 μM stock that also contained 0.24 μM Alexa Red-labeled K18PL) was dispensed into black 1536-well plates (Grenier) using a solenoid-based dispenser. Following transfer of 23 nL of test compound or DMSO vehicle by a pin tool from compound library plates, 2 μl/well of 40 μM heparin in reagent buffer was dispensed and the plate was centrifuged for 15 s at 1000 rpm in a table-top centrifuge. The fibrillization reaction proceeded for 6 hours at 37° C. in a humidified incubator (Kalypsys).
K18PL fibril formation was quantified with a ThT assay as previously described (Crowe, A., Ballatore, C., Hyde, E., Trojanowski, J. Q., and Lee, V. M. Y. (2007) Biochemical and Biophysical Research Communications 358, 1-6). Briefly, 1 μl/well of 62.5 μM ThT (Sigma) in 100 mM glycine, pH 8.5 (12.5 μM final concentration) was dispensed into 1536-well plates after completion of the fibrillization reaction and incubated at room temperature for 1 hour. Plates were read on an Envision fluorescence plate reader with an excitation of 450 nm and an emission setting of 510 nm.
Compound effects on tau assembly were determined for the ThT and FP assays using the formula 1−(Fcompound− FDMSO)/( Fcontrol− FDMSO), where Fcontrol denotes the median plate fluorescence values (ThT assay) or mP values (FP assay) of the non-fibrillizing K18 KD control wells, FDMSO denotes the median value of the DMSO control wells, and Fcompound denotes the compound well values. The resulting values were multiplied by 100 to obtain the percent inhibition of tau fibril formation.
(§1) The solubility of test compounds in the sodium acetate buffer used for subsequent fibrillization reactions was determined by turbidimetric measurements. Compounds were then evaluated in a heparin-induced tau assembly assay, in which the fibrillization of the truncated K18 tau fragment (comprised of four MT-binding repeats) bearing the P301L mutation (K18PL) found in FTDP-17, was monitored by thioflavine-T (ThT) binding and fluorescence (FIG. 3A). (Crowe, A.; et al., Identification of aminothienopyridazine inhibitors of tau assembly by quantitative high-throughput screening. Biochemistry 2009, 48, 7732-45.) The inhibitory activity of test compounds was then confirmed with an orthogonal sedimentation assay in which compound-treated fibrillizing mixtures were centrifuged and quantitation of K18PL tau in the soluble and insoluble fraction was performed by densitometric analyses of SDS-PAGE (FIG. 3B). […] Thus, the tau fibrillization assay was repeated in which both DMSO- and compound-treated mixtures were initially centrifuged for 30 min. prior to incubation (i.e., at time zero of the fibrillization reaction) to remove any pelletable material.

The target of data set [2] is T1, K18PL tau. Nature of the data set: K18PL tau centrifugation (sedimentation) assay, SDS-PAGE densitometry. Particulars: K18PL tau centrifugation assay. The class given is biochemical. As for the experimental part: The determination of compound-induced effects on the amount of tau that remains soluble upon centrifugation, and EM visualization of tau species following incubation with test compounds, were as previously described (Crowe, A., Ballatore, C., Hyde, E., Trojanowski, J. Q., and Lee, V. M. Y. (2007) Biochemical and Biophysical Research Communications 358, 1-6).
as §1

The target in another data set is T2, Aβ(1-42) (Homo sapiens, UniProt P05067).
T2 construct: Synthetic Aβ(1-42) peptide (rPeptide); purchased rPeptide
T2 sequence (P05067 672-713 limits assumed): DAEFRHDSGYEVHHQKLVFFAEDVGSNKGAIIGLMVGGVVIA
Nature of the data set: Aβ(1-42) fibrillization assay (ThT). Format: biochemical. Particulars: Table 3; highest tested concentration (80 μM); read-out: Aβ42 ThT Assay % Inhib.

Setting [3] is: Table 3, NC = not calculated due to insufficient activity.

Read-outs that look alike come from different tables or passages of the source.

T1 sequence (P10636 561-686 P618L): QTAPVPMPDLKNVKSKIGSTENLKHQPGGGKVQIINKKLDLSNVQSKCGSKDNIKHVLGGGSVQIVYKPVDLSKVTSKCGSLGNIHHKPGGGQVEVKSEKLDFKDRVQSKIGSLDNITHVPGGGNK

Regarding `CCOC(=O)c1nn(-c2cccc(C)c2)c(=O)c2c(N)scc12` [CNDR-51423, Ethyl 5-amino-4-oxo-3-(m-tolyl)-3,4-dihydrothieno[3,4-d]pyridazine-1-carboxylate], the melting point lay within 190 to 191 °C. Further, on K18PL tau [1] (Table 4), the inhibition at 80 µM was 80% and the IC50 was 1.26 µM. Moreover, on K18PL tau [2] (Table 4), the “Tau Cent. Assay % Soluble” value came out at 29%.
For `CCOC(=O)c1nn(-c2ccc(N=[N+]=[N-])cc2)c(=O)c2c(N)scc12` [CNDR-51412, Ethyl 5-amino-3-(4-azidophenyl)-4-oxo-3,4-dihydrothieno[3,4-d]pyridazine-1-carboxylate], in that order: 169 to 170 °C, 80%, 6.31 µM and 51%.
For `CCOC(=O)c1nn(-c2ccccc2Br)c(=O)c2c(N)scc12` [CNDR-51421, Ethyl 5-amino-3-(2-bromophenyl)-4-oxo-3,4-dihydrothieno[3,4-d]pyridazine-1-carboxylate] the same measures were 203 to 205 °C, 100%, 6.31 µM and 66%.
On to `COC(=O)c1nn(-c2ccc(F)cc2)c(=O)c2c(N)scc12` [Compound 18], for which the inhibition at 80 µM on Aβ(1-42) came out at 29%; on K18PL tau [1] (Table 3), 86%. Further, the half-inhibitory concentration (IC50) on K18PL tau [1] (setting [3]) is 5.01 µM. Moreover, on K18PL tau [2] (Table 3), the “Tau Cent. Assay % Soluble” value amounted to 64%.
Turning to `Nc1scc2c(CO)nn(-c3ccccc3)c(=O)c12` [Compound 15], the inhibition at 80 µM was found to be 10% on Aβ(1-42) and 91% at K18PL tau [1] (Table 3). In addition, the IC50 on K18PL tau [1] (setting [3]) was 6.31 µM. Moreover, on K18PL tau [2] (Table 3), the “Tau Cent. Assay % Soluble” value came out at 81%.
On to `CCOC(=O)c1cccc(-n2nc(C(=O)OCC)c3csc(N)c3c2=O)c1` [CNDR-51420, Ethyl 5-amino-3-(3-(ethoxycarbonyl)phenyl)-4-oxo-3,4-dihydrothieno[3,4-d]pyridazine-1-carboxylate], for which the melting point lay within 159 to 160 °C. Also, on K18PL tau [1] (Table 4), the inhibition at 80 µM was found to be 74% and the IC50 was 2 µM. Also, the “Tau Cent. Assay % Soluble” value at K18PL tau [2] (Table 4) is 83%.
For `CCOC(=O)c1nn(-c2ccc(NC)cc2)c(=O)c2c(N)scc12` [CNDR-51358, Ethyl 5-amino-3-(4-(methylamino)phenyl)-4-oxo-3,4-dihydrothieno[3,4-d]pyridazine-1-carboxylate], the melting point lay in the range of 211 to 213 °C. Also, on K18PL tau [1] (Table 4), the inhibition at 80 µM is 76% and the IC50 was 3.98 µM. Moreover, the “Tau Cent. Assay % Soluble” value at K18PL tau [2] (Table 4) is 61%.
On to `CCOC(=O)c1nn(-c2ccc(Br)cc2)c(=O)c2c(N)scc12` [CNDR-51386, Ethyl 5-amino-3-(4-bromophenyl)-4-oxo-3,4-dihydrothieno[3,4-d]pyridazine-1-carboxylate], for which the melting point is 198 to 200 °C.
For `CCN(CC)C(=O)c1nn(-c2ccc(OC)cc2)c(=O)c2c(N)scc12` [Compound 8d], the inhibition at 80 µM at Aβ(1-42) turned out to be 35%; on K18PL tau [1] (Table 3), 95%. In addition, on K18PL tau [1] (setting [3]), the IC50 was 10 µM. On K18PL tau [2] (Table 3), the “Tau Cent. Assay % Soluble” value was 99%.
As for `CCOC(=O)c1ccccc1-n1nc(C(=O)OCC)c2csc(N)c2c1=O` [CNDR-51419, Ethyl 5-amino-3-(2-(ethoxycarbonyl)phenyl)-4-oxo-3,4-dihydrothieno[3,4-d]pyridazine-1-carboxylate], the melting point lay within 176 to 178 °C. Further, at K18PL tau [1] (Table 4), the inhibition at 80 µM turned out to be 65% and the IC50 was 1.26 µM. In addition, the “Tau Cent. Assay % Soluble” value at K18PL tau [2] (Table 4) is recorded as 40%.
On to `CCOC(=O)c1ccc(-n2nc(C(=O)OCC)c3csc(N)c3c2=O)cc1` [Compound 5e], for which the inhibition at 80 µM is 4% at Aβ(1-42) and 29% on K18PL tau [1] (Table 3). Besides, the “Tau Cent. Assay % Soluble” value at K18PL tau [2] (Table 3) is listed as 23%.
`CCOC(=O)c1nn(-c2cccc(Br)c2)c(=O)c2c(N)scc12` [CNDR-51422, Ethyl 5-amino-3-(3-bromophenyl)-4-oxo-3,4-dihydrothieno[3,4-d]pyridazine-1-carboxylate] gave a melting point of 163 to 165 °C. On K18PL tau [1] (Table 4), the inhibition at 80 µM was determined as 87% and the IC50 was 1 µM. Moreover, the “Tau Cent. Assay % Soluble” value at K18PL tau [2] (Table 4) came to 67%.
As to `Nc1scc2c(C(=O)NCc3ccccc3)nn(-c3ccccc3)c(=O)c12` [Compound 8a], the inhibition at 80 µM on Aβ(1-42) turned out to be 27%; on K18PL tau [1] (Table 3), 80%. At K18PL tau [1] (setting [3]), the IC50 is 7.94 µM. Also, on K18PL tau [2] (Table 3), the “Tau Cent. Assay % Soluble” value came out at 54%.
Compound `CCOC(=O)c1nn(-c2ccc(N(C)C)cc2)c(=O)c2c(N)scc12` [CNDR-51359, Ethyl 5-amino-3-(4-(dimethylamino)phenyl)-4-oxo-3,4-dihydrothieno[3,4-d]pyridazine-1-carboxylate] yielded a melting point of 211 to 213 °C. Also, on K18PL tau [1] (Table 4), the inhibition at 80 µM stood at 68% and the IC50 is 3.16 µM. For the same compound, the “Tau Cent. Assay % Soluble” value at K18PL tau [2] (Table 4) was determined as 70%.

A word on the melting point: it is the temperature of the solid-liquid transition. Usually IC50 stands for the concentration that gives 50% inhibition.
